Patent US20210177812A1, “METHODS OF SUPPRESSING MYELOID-DERIVED SUPPRESSOR CELLS IN PATIENTS” (MediciNova, Inc., priority 2018, published 2021)
“Also recorded” adds a separate entry of the source. Like-named read-outs stand apart in the source and are kept apart here.

Experiments:
[1] = system: mouse model of glioma GL261; assay: Flow cytometry of MDSCs and T-cells in tumor, blood, spleen and bone marrow, mouse model of glioma GL261; type: in vivo; details: day 19; for monocytic MDSCs (M-MDSCs) in the tumor: ibudilast dosed 50 mg/kg i.p. daily from day 5 (AV1013 dose not given), vs vehicle
Experimental: (§1) Ibudilast was tested in vivo using the mouse model of glioma GL261. Cells were implanted on day 0 and then a 5-day engrafiment period was used to ensure that the treatment being tested was performing by inhibiting tumor growth and not engraftment. After 5 days the mice were intraperitoneally injected daily with ibudilast at 50 mg/kg in a vehicle consisting of PEG 400 and (2-hydroxypropyl)-p-cyclodextrin to enhance solubility with low toxicity or alternatively mice were treated with AV1013. At day 19 post injection, 3 mice from each group (ibudilast, AV1013 or vehicle) were sacrificed for flow cytometry analysis of MDSCs, T-cells, and NK cells in the tumor, blood, spleen, and bone marrow.

M-MDSCs = assay: MDSC generation in co-cultures with MIF inhibitors quantified by flow cytometry; type: cell-based, mouse; details: GL261/bone marrow co-culture
Experimental: (§2) MDSCs were prepared through a co-culture process illustrated in FIG. 1. Glioma cell line GL261 is cultured together with freshly isolated bone marrow for 4 days. During this 4-day process the glioma cell line initiates subsets of the naïve monocytes within the bone marrow to become both monocytic MDSCs (M-MDSCs) and granulocytic MDSCs (G-MDSCs) distinguished via flow cytometry using CD11b, Ly6C, and GR1. The GR1+ population was harvested at day 4 via magnetic bead separation. Once isolated the MDSCs were combined with freshly isolated splenic T-cells which were labeled with CFSE and activated using CD3/28 activation beads. The T-cell proliferation was then determined 3 days after being combined with MDSCs by measuring the fluorescence intensity of each CD3 T-cell after 3 days of being cultured with MDSCs (FIG. 2).

[2] = system: MIF/CD74 signaling pathway; assay: mRNA expression of CD45+ cells isolated from vehicle- and ibudilast-treated tumors; type: in vivo, mouse; details: n=3 per group
Experimental: as §1
Further analysis was conducted on the mRNA expression of CD45+ cells isolated from vehicle- and ibudilast-treated tumors.

MCP-1 = assay: Serum cytokine analysis at day 19 of treated GL261 mice; type: in vivo, mouse; details: day 19, 3 animals per group
Experimental: as §1

[3] = in vivo, cited from earlier work
MDSCs = assay: T-cell proliferation in the presence of ibudilast-treated MDSCs from GL261/bone marrow co-culture; type: cell-based, mouse; details: CFSE-labeled CD3/28-activated splenic T-cells, 3 days with MDSCs; n=6 mice, 2 experiments, P=0.001
Experimental: as §2

GL261 = assay: In vitro treatment of co-culture for 24 h, MCP-1 (CCL2) secretion; type: cell-based, mouse; details: co-culture treated 24 h in vitro
[4] = system: mouse model of glioma GL261; assay: Kaplan Meier survival analysis, mouse model of glioma GL261; type: in vivo; details: n=10 per group; vehicle median 19 days; Log Rank p=0.016
Experimental: as §1
The median survival times for vehicle-treated mice (n=10) was 19 days whereas ibudilast-treated mice (n=10) were undetermined at this point (Log Rank p=0.016, […]) (FIG. 14).

Structure (SMILES)	monocytic MDSCs (M-MDSCs) in the tumor [1]	M-MDSC generation (M-MDSCs)	CCR2 mRNA expression [2]	CD74 mRNA expression [2]	MCP-1 (CCL2) mRNA expression [2]	MIF mRNA expression [2]	myeloid genes mRNA expression [2]	CD8 T-cells ([1]; 50 mg/kg i.p. daily, FIG. 7)	CD4 T-cells ([1]; 50 mg/kg i.p. daily, FIG. 8)	monocytic MDSCs (M-MDSCs) in the blood ([1]; blood, 50 mg/kg i.p. daily from day 5, 50 mg/kg)	monocytic MDSCs (M-MDSCs) in the marrow ([1]; bone marrow, 50 mg/kg i.p. daily from day 5, 50 mg/kg)	monocytic MDSCs (M-MDSCs) in the spleen ([1]; spleen, 50 mg/kg i.p. daily from day 5, 50 mg/kg)	immune suppressive T-regulatory cells ([1]; tumor vs blood, marrow, spleen, 50 mg/kg i.p. daily)	monocytic MDSCs (M-MDSCs) in the tumor ([1]; 50 mg/kg)	serum MCP-1 level (MCP-1)	CNS distribution / penetration [3]	CNS distribution / penetration ([3]; listed as Ibudilast)	suppressive abilities of MDSCs on T-cell proliferation (MDSCs)	secretion of MCP-1 (CCL2) (GL261)	survival versus vehicle [4]
CC(N)C(=O)c1c(C(C)C)nn2ccccc12 (centres unmarked) [AV1013]	no significant suppression	–	–	–	–	–	–	–	–	–	–	–	–	–	–	–	–	–	–	–
CC(C)C(=O)c1c(C(C)C)nn2ccccc12 [ibudilast, 3-isobutyryl-2-isopropylpyrazolo(1,5-a)pyridine]	–	ability to reduce M-MDSC generation	significantly reduced	significantly reduced	significantly reduced	not reduced	Overall reductions	decreased	increased	not altered; also recorded: not M-MDSCs associated with blood, spleen or bone marrow	not altered; also recorded: not M-MDSCs associated with blood, spleen or bone marrow	not altered; also recorded: not M-MDSCs associated with blood, spleen or bone marrow	reduced only in the tumors	reduced; also recorded: reduces M-MDSCs associated with tumor	reduction	good CNS penetration	distributes well to the CNS	effectively reduced the suppressive abilities of MDSCs	reduced GLP261 secretion MCP-1 (CCL2) in a dose-dependent manner; also recorded: reduced GL261 secretion of MCP-1(ccl2) in a dose dependent manner	Significant survival advantages
